Read-outs that look alike come from different tables or passages of the source.
Legend:
human NK-2 receptor = human NK-2 receptor (Homo sapiens (Human), UniProt P21452); test: Selectivity binding assay, human NK-2 ([125I]-Neurokinin A); conditions: CHO cell membranes; 0.1 nM [125I]-Neurokinin A; read-out: hNK-2 (Ki)
Experimental: (§1) Selectivity of the compounds of the invention was determined over the other human NK receptors, namely NK-1 and NK-2 receptors.
The affinity of compounds of the invention for the NK-2 receptor was evaluated in CHO recombinant cells which express the human NK-2 receptor. Membrane suspensions were prepared from these cells. The following radioligand [^125I]-Neurokinin A (PerkinElmer Cat#NEX252) was used in this assay. Binding assays were performed in a 25 mM HEPES/1 mM CaCl2/5 mM MgCl2/0.5% BSA/10 μg/ml saponin, at pH 7.4. Binding assays consisted of 25 μl of membrane suspension (approximately 3.75 μg of protein/well in a 96 well plate), 50 μl of compound or reference ligand (Neurokinin A) at increasing concentrations (diluted in assay buffer) and 0.1 nM [^125I]-Neurokinin A. The plate was incubated 60 min at 25° C. in a water bath and then filtered over GF/C filters (Perkin Elmer, 6005174, presoaked in assay buffer without saponine for 2 h at room temperature) with a Filtration unit (Perkin Elmer). The radioactivity retained on the filters was measured by using the TopCount-NXT reader (Packard). Competition curves were obtained for compounds of the invention and the concentrations of compounds which displaced 50% of bound radioligand (IC50) were determined and then apparent inhibition constant Ki values were calculated by the following equation: Ki=IC50/(1+[L]/KD) where [L] is the concentration of free radioligand and KD is its dissociation constant at the receptor, derived from saturation binding experiments (Cheng and Prusoff, 1973).

plasma protein = test: Determination of plasma protein binding (rapid equilibrium dialysis); type: in vitro ADME; conditions: 4 hours at 37° C.
Description: Determination of Plasma Protein Binding
The pharmacokinetic and pharmacodynamic properties of chemicals/drugs are largely a function of the reversible binding of chemicals to plasma or serum proteins. Generally, only the unbound or “free fraction” of a drug is available for diffusion or transport across cell membranes, and for interaction with a pharmacological/toxicological target. Consequently, the extent of the plasma protein binding (PPB) of a compound influences its action as well as its distribution and elimination.
The determination of plasma protein binding (PPB) of a compound is enabled by equilibrium dialysis, an accepted and standard method for reliable estimation of the non-bound drug fraction in plasma. RED (Rapid Equilibrium Dialysis) device insert is made of two side-by-side chambers separated by an O-ring-sealed vertical cylinder of dialysis membrane (MWCO˜8,000). Plasma containing drug (at 5 μM or blood concentrations otherwise corresponding to efficacious doses, if known) is added to one chamber while buffer is added to the second. After 4 hours incubation at 37° C. under shaking, an aliquot is removed from each chamber and analyzed by a LC-MS/MS procedure enables the determination of both free and bound drug.
The percentages provided in Table 4 represent for the compounds of the invention the bound drug fraction to the plasma protein. The “free fraction” may be calculated as 100%−% rPPB (i.e. the complementary percentage of that disclosed in Table 4, corresponding to the drug concentration that is unbound and therefore available to engage biological target and elicit pharmacological activity).

human NK-1 receptor = human NK-1 receptor (Homo sapiens (Human), UniProt P25103); test: Selectivity binding assay, human NK-1 ([3H] substance P); conditions: CHO cell membranes; 2 nM [3H] substance P; read-out: hNK-1 (Ki)
Experimental: as §1
The affinity of compounds of the invention for the NK-1 receptor was evaluated in CHO recombinant cells which express the human NK-1 receptor. Membrane suspensions were prepared from these cells. The following radioligand: [^3H] substance P (PerkinElmer Cat#NET111520) was used in this assay. Binding assays were performed in a 50 mM Tris/5 mM MnCl2/150 mM NaCl/0.1% BSA at pH 7.4. Binding assays consisted of 25 μl of membrane suspension (approximately 5 μg of protein/well in a 96 well plate), 50 μl of compound or reference ligand (Substance P) at increasing concentrations (diluted in assay buffer) and 2 nM [^3H] substance P. The plate was incubated 60 min at 25° C. in a water bath and then filtered over GF/C filters (Perkin Elmer, 6005174, presoaked in 0.5% PEI for 2 h at room temperature) with a Filtration unit (Perkin Elmer). The radioactivity retained on the filters was measured by using the TopCount-NXT reader (Packard). Competition curves were obtained for compounds of the invention and the concentrations of compounds which displaced 50% of bound radioligand (IC50) were determined and then apparent inhibition constant Ki values were calculated by the following equation: Ki=IC50/(1+[L]/KD) where [L] is the concentration of free radioligand and KD is its dissociation constant at the receptor, derived from saturation binding experiments (Cheng and Prusoff, 1973).

human NK-3 receptor [1] = biological target: T1, human NK-3 receptor (Homo sapiens (Human), UniProt P29371); test: Aequorin functional assay with human NK-3 receptor (antagonist testing); type: cell-based; conditions: CHO cells expressing human NK-3 receptor; agonist NKA at EC80 (3 nM); read-out: Functional assay: Aequorin assay with human NK-3 receptor hNK-3 - AEQ (antagonist IC50)
Experimental: Aequorin Assay with Human NK-3 Receptor
Changes in intracellular calcium levels are a recognized indicator of G protein-coupled receptor activity. The efficacy of compounds of the invention to inhibit NKA-mediated NK-3 receptor activation was assessed by an in vitro Aequorin functional assay. Chinese Hamster Ovary recombinant cells expressing the human NK-3 receptor and a construct that encodes the photoproteinapoaequorin were used for this assay. In the presence of the cofactor coelenterazine, apoaequorin emits a measurable luminescence that is proportional to the amount of intracellular (cytoplasmic) free calcium.
The antagonist activity of compounds of the invention is measured following pre-incubation (3 minutes) of the compound (at various concentrations) with the cells, followed by addition of the reference agonist (NKA) at a final concentration equivalent to the EC80 (3 nM) and recording of emitted light (FDSS 6000 Hamamatsu) over the subsequent 90-second period. The intensity of the emitted light is integrated using the reader software. Compound antagonist activity is measured based on the concentration-dependent inhibition of the luminescence response to the addition of Neurokinin A.
The IC50 values shown in Table 2 indicate that compounds of the invention are potent NK-3 antagonist compounds.

human NK-3 receptor [2] = biological target: T1, human NK-3 receptor; test: 3H-SB222200 binding competition assay with human NK-3 receptor
Experimental: The affinity of compounds of the invention for the human NK-3 receptor was determined by measuring the ability of compounds of the invention to competitively and reversibly displace a well-characterized NK-3 radioligand in a concentration-dependent manner.
^3H-SB222200 Binding Competition Assay with Human NK-3 Receptor
The ability of compounds of the invention to inhibit the binding of the NK-3 receptor selective antagonist ^3H-SB222200 was assessed by an in vitro radioligand binding assay. Membranes were prepared from Chinese hamster ovary recombinant cells stably expressing the human NK-3 receptor. The membranes were incubated with 5 nM ^3H-SB222200 (ARC) in a HEPES 25 mM/NaCl 0.1M/CaCl2 1 mM/MgCl2 5 mM/BSA 0.5%/Saponin 10 μg/ml buffer at pH 7.4 and various concentrations of compounds of the invention. The amount of ^3H-SB222200 bound to the receptor was determined after filtration by the quantification of membrane associated radioactivity using the TopCount-NXT reader (Packard).

[3] = CHO cell membranes, 5 nM 3H-SB222200, Table 2, read-out: Competitive binding assay with human NK-3 receptor hNK-3 (Ki)
[4] = Table 3 (selectivity table), read-out: hNK-3 (Ki)

T1 sequence (P29371 whole entry): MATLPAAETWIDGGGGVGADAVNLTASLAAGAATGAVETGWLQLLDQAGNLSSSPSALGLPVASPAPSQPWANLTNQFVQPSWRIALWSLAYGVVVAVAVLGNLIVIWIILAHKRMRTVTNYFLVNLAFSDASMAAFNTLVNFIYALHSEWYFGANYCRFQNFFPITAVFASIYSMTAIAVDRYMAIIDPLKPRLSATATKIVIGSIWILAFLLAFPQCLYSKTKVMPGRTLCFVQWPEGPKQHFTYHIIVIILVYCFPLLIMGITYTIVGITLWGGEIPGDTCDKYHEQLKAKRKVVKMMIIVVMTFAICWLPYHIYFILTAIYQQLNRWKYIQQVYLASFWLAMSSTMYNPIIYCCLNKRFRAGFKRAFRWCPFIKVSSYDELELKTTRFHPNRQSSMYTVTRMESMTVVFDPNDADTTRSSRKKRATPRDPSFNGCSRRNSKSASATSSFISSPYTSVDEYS
Sequence of human NK-2 receptor (P21452 whole entry): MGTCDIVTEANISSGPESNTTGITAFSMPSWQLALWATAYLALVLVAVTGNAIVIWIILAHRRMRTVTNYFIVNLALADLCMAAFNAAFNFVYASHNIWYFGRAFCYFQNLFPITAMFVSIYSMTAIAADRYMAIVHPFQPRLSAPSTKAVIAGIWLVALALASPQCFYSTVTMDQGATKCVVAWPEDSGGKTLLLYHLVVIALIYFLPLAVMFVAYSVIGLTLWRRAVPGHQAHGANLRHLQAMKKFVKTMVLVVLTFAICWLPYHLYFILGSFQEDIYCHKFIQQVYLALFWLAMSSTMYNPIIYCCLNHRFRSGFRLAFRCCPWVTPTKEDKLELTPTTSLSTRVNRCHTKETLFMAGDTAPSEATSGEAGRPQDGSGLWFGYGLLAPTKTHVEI
Sequence of human NK-1 receptor (P25103 whole entry): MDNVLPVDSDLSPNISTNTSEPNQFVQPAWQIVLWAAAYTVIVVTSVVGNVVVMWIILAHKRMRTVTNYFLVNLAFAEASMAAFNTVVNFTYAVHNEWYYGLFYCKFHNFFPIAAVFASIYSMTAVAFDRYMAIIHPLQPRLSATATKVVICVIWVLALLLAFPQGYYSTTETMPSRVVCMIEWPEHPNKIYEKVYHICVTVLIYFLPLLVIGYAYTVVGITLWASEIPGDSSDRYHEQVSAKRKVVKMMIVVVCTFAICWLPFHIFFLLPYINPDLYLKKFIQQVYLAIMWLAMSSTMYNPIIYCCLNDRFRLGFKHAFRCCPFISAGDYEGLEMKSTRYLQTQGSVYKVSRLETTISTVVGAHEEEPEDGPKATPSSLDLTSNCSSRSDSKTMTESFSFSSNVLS

| Ki (human NK-2 receptor) [nM] | Exposure (% rPPB), bound drug fraction to the plasma protein (plasma protein) [%] | Ki (human NK-1 receptor) [nM] | IC50 (human NK-3 receptor [1]) [nM] | Ki (human NK-3 receptor [2]; [3]) [nM] | Ki (human NK-3 receptor [2]; [4]) [nM] | Structure (SMILES) |
| --- | --- | --- | --- | --- | --- | --- |
| 15000 | 69 | 28000 | 59 | 40 | 40 | C[C@@H]1c2nnc(-c3csc(C(F)(F)F)n3)n2CCN1C(=O)c1ccc(F)c(F)c1F [Compound 14, (R)-(8-methyl-3-(2-(trifluoromethyl)thiazol-4-yl)-5,6-dihydro-[1,2,4]triazolo[4,3-a]pyrazin-7(8H)-yl)(2,3,4-trifluorophenyl)methanone] |
| 3500 | 60 | 24000 | 24 | 13 | 13 | C[C@@H]1c2nnc(-c3csc(C(F)(F)F)n3)n2CCN1C(=O)c1cc(F)c(F)c(F)c1 [Compound 15, (R)-(8-methyl-3-(2-(trifluoromethyl)thiazol-4-yl)-5,6-dihydro-[1,2,4]triazolo[4,3-a]pyrazin-7(8H)-yl)(3,4,5-trifluorophenyl)methanone] |
| 1500 | 82 | 9400 | 23 | 14 | 14 | C[C@@H]1c2nnc(-c3csc(C(F)(F)F)n3)n2CCN1C(=O)c1ccc(F)c(Cl)c1 [Compound 16, (R)-(3-chloro-4-fluorophenyl)(8-methyl-3-(2-(trifluoromethyl)thiazol-4-yl)-5,6-dihydro-[1,2,4]triazolo[4,3-a]pyrazin-7(8H)-yl)methanone] |
| 5200 | 84 | 12000 | 37 | 22 | 22 | C[C@@H]1c2nnc(-c3csc(C(F)(F)F)n3)n2CCN1C(=O)c1ccc(Cl)c(F)c1 [Compound 17, (R)-(4-chloro-3-fluorophenyl)(8-methyl-3-(2-(trifluoromethyl)thiazol-4-yl)-5,6-dihydro-[1,2,4]triazolo[4,3-a]pyrazin-7(8H)-yl)methanone] |
| 5900 | 78 | 15000 | 31 | 21 | 21 | C[C@@H]1c2nnc(-c3csc(C(F)(F)F)n3)n2CCN1C(=O)c1ccc(Cl)cc1 [Compound 18, (R)-(4-chlorophenyl)(8-methyl-3-(2-(trifluoromethyl)thiazol-4-yl)-5,6-dihydro-[1,2,4]triazol[4,3-a]pyrazin-7(8H)-yl)methanone] |

Reference: US9840508B2, “N-acyl-(3-substituted)-(8-methyl)-5,6-dihydro-[1,2,4]triazolo[4,3-a] pyrazines as selective NK-3 receptor antagonists, pharmaceutical composition, methods for use in NK-3 receptor-mediated disorders” (EUROSCREEN SA, priority 2013, dated 2017)
